We go through ten molecules from patent US5919896A, “PF4A receptor” (Genentech, Inc., priority 1997, dated 1999).

One experiment relates to IL8R-A. The note with it: Holmes et al., cited from earlier work.
The next experiment relates to expressed IL-8 receptor. From the text:
(§1) Oppenheim et al., supra; Korchak et al., J. Biol Chem., 259: 4076-4082 (1984). […] Oppenheim et al., supra.

The subject of experiment [1] is human IL-8 receptor (clone pRK5B.il8r1.1). The experiment in a line: Flow cytometry intracellular Ca++ response of 293 cells transfected with IL-8 receptor. It counts as cell-based. The protocol: (§2) After two days, the cells were loaded with 2 μM indo-1 acetoxymethyl ester in RPMI medium (Sigma) for 30 min at 37° C. Intracellular Ca^++ was measured with a Coulter 753 flow cytometer using the ratio of 405 and 525 nm fluorescence. Grynkiewicz et al., J. Biol. Chem., 260: 3440-3450 (1985).
(§3) No response is found to fMLP. […] Oppenheim et al., supra.

Experiment [2] deals with IL-8 receptor (clone pRK5B.il8r1.1) on transfected COS cells. Put plainly: 125I-IL-8 binding competition on transfected COS cells. More on the design: species or system human. The following applies: COS cells transfected with clone pRK5B.il8r1.1. The protocol: Samanta et al., supra, Besemer et al., supra, Grob et al., supra.
Binding competition was performed with electroporated COS-7 cells after 1 day of expression in 6-well dishes (about 175,000 cells/dish). […] Wells were then washed, the cells harvested with trypsin, and counted. […] Neutrophil binding was performed as described (Pacholczyk et al., supra) but for 2 hr at 4° C.

Another experiment deals with human fMLP receptor. Put plainly: Flow cytometry intracellular Ca++ response of 293 cells transfected with fMLP receptor. It counts as cell-based. The following applies: 293 cells transfected with human fMLP receptor. On the procedure:
as §2, §1
Background: A flow cytometer gives signals particle by particle.

For experiment [3], the system named is receptor of FIG. 5 (8rr.9). The experiment in a line: Response of recombinant cells bearing the FIG. 5 receptor to PF4 superfamily ligands. It counts as cell-based, human. The note with it: preliminary experiments.
The test system of experiment [4] is receptor of FIG. 4 (8rr.20.15). Put plainly: Response of recombinant cells bearing the FIG. 4 receptor to PF4 superfamily ligands. It counts as cell-based, human. The note with it: preliminary experiments.
For experiment [5], the system named is expressed human fMLP receptor. Put plainly: 125I-IL-8 binding to the expressed human fMLP receptor.
Description: as §3

In another experiment the target is IL8R-B. The following applies: background, Murphy and Tiffany; read-out: affinity of IL8R-B for ligand; cited from earlier work.
Experiment [6] concerns Murphy and Tiffany receptor. The experiment in a line: Ligand affinity of the Murphy and Tiffany receptor (studies herein). It counts as binding, human. From the text: Murphy and Tiffany, supra, describe a receptor having a high degree of homology to the receptor of FIG. 2. […] This could be readily accomplished by routine screening methods.
For experiment [7], the system named is receptor of FIG. 2 (IL-8 receptor). Put plainly: MGSA binding to the receptor of FIG. 2. More on the design: species or system human. From the text: Murphy and Tiffany, supra, describe a receptor having a high degree of homology to the receptor of FIG. 2. […] This could be readily accomplished by routine screening methods. […] On the other hand, antibodies that can discriminate between the FIG. 2 and Murphy and Tiffany receptors and bind only to one or the other are useful in diagnosis. The receptor of FIG. 2 binds MGSA poorly, in contrast to the Murphy and Tiffany receptor.

A further experiment deals with human neutrophils. Put plainly: Inhibition of 125I-IL-8 binding to human neutrophils. The note with it: 475 pM of MGSA, no antibody. From the text: Cells were washed twice in the HBSS medium and resuspended to be 1×10^6 cells/ml.

Turning to `CCCCC/C=C\C[C@@H](O)/C=C/C=C/C=C\[C@@H](O)CCCC(=O)O` [LTB4, reference compound], the “recognition of ligand by IL8R-A” value with IL8R-A is listed as “does not recognize”.

Take `CSCC[C@H](NC=O)C(=O)N[C@@H](CC(C)C)C(=O)N[C@@H](Cc1ccccc1)C(=O)O` [fMLP, f-Met-Leu-Phe, reference compound]: in the experiment on expressed IL-8 receptor, the “binding of 3H-fMLP to the expressed IL-8 receptor” value is “failed to detect any binding”. In addition, the “intracellular Ca++ response” value was “No response” in [1] and “respond” with human fMLP receptor. For the same molecule, in experiment [2], the “competition of 125I-IL-8 binding” value was “no competition”. Besides, in the experiment on IL8R-A, the “recognition of ligand by IL8R-A” value is “does not recognize”.

Consider “IL-8: Purified human 72 amino acid IL-8 made in E. coli”, for which the “response of recombinant cells bearing the receptor” value in experiment [3] and in experiment [4] was “do not respond” each time. In addition, the results for the “intracellular Ca++ response” value (in [1]; with human fMLP receptor) were “clear transient increase” and “not”, respectively. Besides, the “binding of 125I-IL-8 to the expressed human fMLP receptor” value in experiment [5] is given as “failed to detect any binding”. The Kd on IL8R-B is 2 nM; on IL8R-A (background, read-out: affinity of IL8R-A for ligand), 2 nM. Moreover, the “IL-8 affinity compared with the receptor of FIG. 2” value in experiment [6] was “as high or higher”.

As for “MCAF: macrophage chemotactic and activating factor, C-C peptide”, the “recognition of ligand by IL8R-A” value in the experiment on IL8R-A is listed as “does not recognize”.

Regarding “MCP1: PF4 superfamily ligand tested on cells bearing the FIG. 4 and 5 receptors”, the “response of recombinant cells bearing the receptor” value in experiment [3] and in experiment [4] was “do not respond” in each case.

Regarding “MGSA: NAP-3 (melanoma growth-stimulating activity [MGSA]/gro), C-X-C member of the PF4 superfamily”, the “response of recombinant cells bearing the receptor” value in experiment [3] and in experiment [4] was “do not respond” in each case. Also, the values for the Kd (at IL8R-B; in [6] (read-out: affinity for MGSA)) were 2 nM and 1 to 10 nM, respectively. Besides, the “binding of MGSA” value in experiment [7] was “poorly”. Also, the “inhibition of IL-8 binding to human neutrophils by MGSA” value with human neutrophils is “approximately 50%”. The “recognition of ligand by IL8R-A” value in the experiment with IL8R-A is “does recognize”.

Regarding TNF-α, the “recognition of ligand by IL8R-A” value in the experiment with IL8R-A is recorded as “does not recognize”.

B1: NAP-2: neutrophil activating protein-2, C-X-C family member (protein, UniProt P02775 59-128, looked up)
Neutrophil-activating peptide …: AELRCMCIKTTSGIHPKNIQSLEVIGKGTHCNQVEVIATLKDGRKICLDPDAPRIKKIVQKKLAGDESAD
modifications: Neutrophil-activating peptide 2
For the molecule B1, the “recognition of ligand by IL8R-A” value with IL8R-A is “does recognize”.

B2: C5α: neutrophil chemoattractant C5a (protein, UniProt P01031 678-751, looked up)
C5a anaphylatoxin: TLQKKIEEIAAKYKHSVVKKCCYDGACVNNDETCEQRAARISLGPRCIKAFTECCVVASQLRANISHKDMQLGR
modifications: C5a anaphylatoxin
notes: neutrophil chemoattractant C5a
With B2, the “recognition of ligand by IL8R-A” value in the experiment with IL8R-A is on record as “does not recognize”.

B3: Rantes: C-C peptide of the platelet factor 4 superfamily (protein)
chain: SPYSSDTTPCCFAYIARPLPRAHIKEYFYTSGKCSNPAVVFVTRKNRQVCANPEKKWVREYINSLEMS
As for B3, the “response of recombinant cells bearing the receptor” value in [3] and in [4] was “do not respond” throughout.
